Source: ChEMBL document CHEMBL1129441, “Derivatives of the triazoloquinazoline adenosine antagonist (CGS15943) are selective for the human A3 receptor subtype” (J Med Chem, 1996)

Assays:
Adenosine receptor A2a [1] = molecular target: T1, Adenosine receptor A2a (Rattus norvegicus, UniProt P30543); experiment: Displacement of [3H]-[…] from Adenosine A2A receptor of rat striatal membranes; type: cell membranes, Membrane
Adenosine receptor A1 [2] = molecular target: T2, Adenosine receptor A1 (Rattus norvegicus, UniProt P25099); experiment: Binding affinity for A1 receptors from rat cerebral cortex membranes using [3H]-(R(-PIA; type: tissue-based
T2 sequence (P25099 whole entry): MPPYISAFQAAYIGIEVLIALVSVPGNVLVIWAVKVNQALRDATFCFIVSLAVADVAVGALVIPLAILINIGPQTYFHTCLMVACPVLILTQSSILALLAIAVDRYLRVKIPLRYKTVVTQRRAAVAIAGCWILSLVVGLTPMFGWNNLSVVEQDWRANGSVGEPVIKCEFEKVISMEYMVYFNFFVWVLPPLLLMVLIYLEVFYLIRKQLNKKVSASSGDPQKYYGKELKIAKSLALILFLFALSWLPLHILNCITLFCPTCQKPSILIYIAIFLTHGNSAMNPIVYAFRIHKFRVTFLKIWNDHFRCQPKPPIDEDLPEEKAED

Adenosine receptor A2a [3] = molecular target: T1, Adenosine receptor A2a; experiment: (§1) Binding affinity for Adenosine A2A receptor from rat striatal membranes using [3H]-[…]
Adenosine receptor A3 [4] = molecular target: T3, Adenosine receptor A3 (Homo sapiens, UniProt P0DMS8); experiment: biochemical
T3 sequence (P0DMS8 whole entry): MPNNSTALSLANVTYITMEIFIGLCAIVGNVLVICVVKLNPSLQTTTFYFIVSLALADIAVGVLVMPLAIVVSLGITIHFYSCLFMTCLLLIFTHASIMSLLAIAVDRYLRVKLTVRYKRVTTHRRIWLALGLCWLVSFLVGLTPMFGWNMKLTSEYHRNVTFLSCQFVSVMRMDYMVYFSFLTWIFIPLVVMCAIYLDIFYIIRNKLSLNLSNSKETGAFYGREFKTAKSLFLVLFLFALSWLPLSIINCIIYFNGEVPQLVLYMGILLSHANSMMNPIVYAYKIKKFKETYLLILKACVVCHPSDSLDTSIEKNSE
Description: In vitro binding affinity at human Adenosine A3 receptor from HEK293 cells by [125I]AB-MECA displacement.

Adenosine receptor A3 [5] = molecular target: T4, Adenosine receptor A3 (Rattus norvegicus, UniProt P28647)
T4 sequence (P28647 whole entry): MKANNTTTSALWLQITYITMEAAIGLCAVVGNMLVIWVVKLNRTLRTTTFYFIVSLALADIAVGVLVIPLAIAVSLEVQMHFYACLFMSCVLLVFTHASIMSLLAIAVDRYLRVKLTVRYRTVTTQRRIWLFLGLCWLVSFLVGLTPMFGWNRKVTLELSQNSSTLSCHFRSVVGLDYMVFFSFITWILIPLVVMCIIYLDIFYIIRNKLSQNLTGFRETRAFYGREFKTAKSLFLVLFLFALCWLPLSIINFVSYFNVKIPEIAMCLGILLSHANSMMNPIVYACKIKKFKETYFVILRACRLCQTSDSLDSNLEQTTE
Description: Binding affinity for Adenosine A3 receptor from rat striatal membranes

[6] = molecular target: T5, Adenosine receptor A1 (Rattus norvegicus) (UniProt P25099); experiment: Binding affinity for Adenosine A1 receptor from rat cerebral cortex membranes using [3H]-(R)-PIA; type: tissue-based; settings: concentration not given here
T5 sequence (whole entry): T2 sequence (P25099 whole entry)

[7] = molecular target: Adenosine receptor A2a (Rattus norvegicus) (UniProt P30543); experiment: as §1; settings: concentration not given here
Sequence of Adenosine receptor A2a (Rattus norvegicus) (P30543 whole entry): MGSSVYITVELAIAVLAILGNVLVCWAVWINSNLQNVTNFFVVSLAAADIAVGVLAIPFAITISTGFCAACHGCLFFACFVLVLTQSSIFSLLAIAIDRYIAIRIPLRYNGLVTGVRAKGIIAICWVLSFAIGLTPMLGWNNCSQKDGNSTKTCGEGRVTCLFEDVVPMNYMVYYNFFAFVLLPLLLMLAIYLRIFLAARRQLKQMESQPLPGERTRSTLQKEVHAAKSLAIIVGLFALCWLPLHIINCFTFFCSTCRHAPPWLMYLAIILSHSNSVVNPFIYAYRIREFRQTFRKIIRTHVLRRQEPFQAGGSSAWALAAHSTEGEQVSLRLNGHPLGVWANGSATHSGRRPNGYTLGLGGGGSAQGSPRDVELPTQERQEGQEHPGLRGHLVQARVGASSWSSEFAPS

Adenosine receptor A1 [8] = molecular target: T2, Adenosine receptor A1; experiment: Displacement of [3H]-(R)-PIA from Adenosine A1 receptor of rat cerebral cortex membranes; type: cell membranes, Membrane
[9] = Relative binding to rat A2A and human A3 adenosine receptors (ratio of IC50)
[10] = Relative binding to rat A1 and human A3 adenosine receptors (ratio of IC50)
Adenosine receptor A1 [11] = molecular target: T2, Adenosine receptor A1; experiment: Binding affinity for Adenosine A1 receptor from rat cerebral cortex membranes using [3H](R)-PIA; type: tissue-based

T1 sequence (P30543 whole entry): as above

| Compound | Ki (Adenosine receptor A2a [1]) [nM] | Ki (Adenosine receptor A3 [4]) [nM] | Ratio [9] | Ratio [10] | also measured |
| --- | --- | --- | --- | --- | --- |
| CCOC(=O)C1=C(c2ccccc2)Nc2cc(C)c(C(=O)OCC)cc2C1/C=C/c1ccccc1 (stereo not given) |  | 0.11 |  |  | IC50 (Adenosine receptor A1 [2]): 5.93 nM; IC50 (Adenosine receptor A2a [3]): 4.77 nM |
| Nc1nc2ccc(Cl)cc2c2nc(-c3ccco3)nn12 [CGS-15943] |  |  |  |  | IC50 (Adenosine receptor A2a [3]): 3.3 nM; Ki (Adenosine receptor A3 [5]): 100000 nM |
| O=C(Nc1nc2ccc(Cl)cc2c2nc(-c3ccc(Br)o3)nn12)c1ccccc1 |  |  |  |  | inhibition [6]: < 10%; inhibition [7]: < 10% |
| O=C(Nc1nc2ccc(Cl)cc2c2nc(-c3ccco3)nn12)c1cccc(I)c1 | 310 | 23.8 | 13 | 8.4 | Ki (Adenosine receptor A1 [8]): 200 nM |
| Oc1nc2ccc(Cl)cc2c2nc(-c3ccco3)nn12 | 4380 |  | 17 | 15 | Ki (Adenosine receptor A1 [8]): 3950 nM |
| Nc1nc2ccc(Cl)cc2c2nc(-c3ccc(Br)o3)nn12 |  | 64 |  |  | IC50 (Adenosine receptor A2a [3]): 531 nM |
| CCCn1c(=O)n2nc(-c3ccco3)nc2c2cc(Cl)ccc21 | 6960 | 1810 | 3.8 | 1 | Ki (Adenosine receptor A1 [8]): 1850 nM |
| O=C(Nc1nc2ccc(Cl)cc2c2nc(-c3ccco3)nn12)c1ccccc1 | 273 | 3.03 | 90 | 220 | Ki (Adenosine receptor A1 [8]): 680 nM |
| Cc1ccc(-c2oc3ccc(Cl)cc3c(=O)c2Cl)c(OC(C)C)c1 |  |  |  |  | Ki (Adenosine receptor A1 [11]): > 100000 nM; IC50 (Adenosine receptor A2a [3]): > 100 nM |

The next lines start with results.

| Ki (Adenosine receptor A2a [1]) [nM] | Ki (Adenosine receptor A3 [4]) [nM] | Ratio [9] | Ratio [10] | Compound | also measured |
| --- | --- | --- | --- | --- | --- |
| 36.3 |  |  |  | CC(=O)Nc1nc2ccc(Cl)cc2c2nc(-c3ccco3)nn12 |  |
| 88.8 |  | 0.36 | 0.84 | CC(C)(C)C(=O)Nc1nc2ccc(Cl)cc2c2nc(-c3ccco3)nn12 |  |
|  |  | 14 | 40 | CCC(=O)Nc1nc2ccc(Cl)cc2c2nc(-c3ccco3)nn12 |  |
| 14.4 | 80.8 | 0.18 | 0.14 | NCCCC(=O)Nc1nc2ccc(Cl)cc2c2nc(-c3ccco3)nn12 |  |
| 135 | 32.9 | 4.1 | 2.8 | CC(C)(C)OC(=O)NCCCC(=O)Nc1nc2ccc(Cl)cc2c2nc(-c3ccco3)nn12 |  |
| 37.6 |  | 2.6 | 2.2 | CCCC(=O)Nc1nc2ccc(Cl)cc2c2nc(-c3ccco3)nn12 |  |
| 48.8 |  | 2.3 | 1.3 | CCCCC(=O)Nc1nc2ccc(Cl)cc2c2nc(-c3ccco3)nn12 |  |
